Holding throughout (assay type): cell-based
For assay [1], the system named is Mia-Pa-Ca-2 cells. In words: Protein profile (SDS-PAGE) of treated pancreatic cancer cells. Particulars: Mw 1:500, cisplatin 5 μg/ml, paclitaxel 150 μg/ml, gemcitabine 800 nm; serum free media, 37° C.; vs untreated cell profile. As for the experimental part:
The Mia-Pa-Ca-2 cells were treated with Mw Cells in ratio 1:500, cisplatin at 5 μg/ml, paclitaxel at 150 μg/ml, and gemcitabine at 800 nm. The treatment was carried out in serum free media at 37° C. The cells were lysed and SDS-PAGE was run to obtain proteomic profile. Thus obtained profiles were overlapped with the untreated cell protein profile. The protein profile was noticed for each treatment. The differently expressed protein was identified at 45 KDa.
45 KDa protein is commonly over expressed protein when pancreatic cancer cells are treated with Mw, cisplatin, paclitaxel, gemcitabine, or combination there of.

For assay [2], the system named is B16 melanoma cells. The assay can be described thus: Protein profile (SDS-PAGE) of treated melanoma cells. Particulars: cisplatin 5 μg/ml, paclitaxel 150 μg/ml, gemcitabine 800 nm; serum free media, 37° C.; vs untreated cell profile. On the procedure: The B16 melanoma cells were treated with, cisplatin at 5 μg/ml, paclitaxel at 150 μg/ml,and gemcitabine at 800 nm. The treatment was carried out in serum free media at 37° C. The cells were lysed and SDS-PAGE was run to obtain proteomic profile. Thus obtained profiles were overlapped with the untreated cell protein profile. The protein profile was noticed for each treatment. The differently expressed protein was identified at 36 KDa.
36 KDa protein is commonly expressed protein when melanoma cells are treated with, cisplatin, paclitaxel, gemcitabine, or combination there of.

The test system of assay [3] is Lung cancer cell lines (A549 and L132). The assay can be described thus: Protein profile (SDS PAGE and Western blot) of Mw treated lung cancer cell lines. Particulars: Mw/cells 1:100, 4 hours at 37° C.; vs untreated cell profile. As for the experimental part: Different Lung cancer cell lines (A549 and L132) were treated with Mw/cells in the ratio of 1:100. Each treatment group contained 4×10E6 cells. Cells treated with Mw were incubated for 4 hours at 37° C. After treatment, cells were pelleted and supernatant was discarded. Cells were then resuspended in DPBS (400 μl). Cells were then sonicated for 15 minutes with pulse of 10 seconds on and 20 seconds off. The lysate obtained was estimated for the protein content using BCA Protein assay and protein was normalized to load 30 μg protein in each well. This was followed by 12% reducing SDS PAGE and Western blot analysis to obtain protein profile and humoral response. Thus obtained profile was compared with untreated cell protein profile.
In general terms: Immunoblotting shows a protein as a band on a membrane.

Regarding `N.N.[Cl][Pt][Cl]` [cisplatin], the “commonly over expressed protein after treatment (SDS-PAGE band)” value (from here on “commonly over expressed protein”) in assay [1] is listed as 45 KDa. The “commonly expressed protein after treatment (SDS-PAGE band)” value in assay [2] stood at 36 KDa.
For `Nc1ccn([C@@H]2O[C@H](CO)[C@@H](O)C2(F)F)c(=O)n1` [gemcitabine] the same measures were 45 KDa and 36 KDa.
Regarding `CC(=O)O[C@H]1C(=O)[C@@]2(C)[C@H]([C@H](OC(=O)c3ccccc3)[C@]3(O)C[C@H](OC(=O)[C@H](O)[C@@H](NC(=O)c4ccccc4)c4ccccc4)C(C)=C1C3(C)C)[C@]1(OC(C)=O)CO[C@@H]1C[C@@H]2O` [paclitaxel], the “commonly over expressed protein” value in assay [1] is listed as 45 KDa. For the same compound, the “commonly expressed protein after treatment (SDS-PAGE band)” value in assay [2] worked out at 36 KDa.
Turning to Mycobacterium w [Mw], in assay [3], the “common protein in both treated cell lines” value came out at 43 KDa. The “commonly over expressed protein” value in assay [1] came to 45 KDa.

These data come from patent US9714275B2, “Cancer antigen” (Cadila Pharmaceuticals Ltd., priority 2011, dated 2017).
